From patent publication US11065266B2, “Method of treating melanoma using an inhibitor of an atypical protein kinase C” (UNIVERSITY OF SOUTH FLORIDA, priority 2016, dated 2021)

Columns and labels:
[1] = system: MAPK, Akt2, FGFR 1/2/3/4, mTOR, GSK3B, IRAK1/4, JAK 1/2, MEK1, ERK1/2, JNK 1/2, PKA, Src, ROCK2 and PI3K; conditions: cited from earlier work
[2] = system: other PKC isoforms; conditions: cited from earlier work
[3] = biological target: T1, PKC-ι (Homo sapiens, UniProt P41743); design: dose or concentration left out as unconfirmed; conditions: cited from earlier work
T1 sequence (P41743 1-596): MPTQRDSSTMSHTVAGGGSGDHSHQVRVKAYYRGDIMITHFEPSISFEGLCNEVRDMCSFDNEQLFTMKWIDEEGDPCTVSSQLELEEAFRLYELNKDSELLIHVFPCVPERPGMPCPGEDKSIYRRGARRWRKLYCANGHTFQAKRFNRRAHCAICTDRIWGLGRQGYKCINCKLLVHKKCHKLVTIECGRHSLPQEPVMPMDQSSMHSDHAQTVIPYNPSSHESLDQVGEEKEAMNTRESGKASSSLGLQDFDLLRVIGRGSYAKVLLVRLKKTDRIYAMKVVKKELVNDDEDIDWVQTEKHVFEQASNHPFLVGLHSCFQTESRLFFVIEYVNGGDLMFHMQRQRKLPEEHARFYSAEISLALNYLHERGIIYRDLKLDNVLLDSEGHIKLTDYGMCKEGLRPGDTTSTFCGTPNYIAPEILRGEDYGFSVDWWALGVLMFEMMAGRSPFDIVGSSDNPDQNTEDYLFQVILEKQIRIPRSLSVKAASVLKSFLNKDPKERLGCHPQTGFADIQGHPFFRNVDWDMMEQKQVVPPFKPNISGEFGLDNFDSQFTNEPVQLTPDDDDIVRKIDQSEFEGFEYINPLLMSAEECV

[4] = system: MeWo cells; experiment: WST-1 assay for cell viability and cytotoxicity; type: cell-based, human; conditions: treated at IC50, 3 days
Description: (§1) Approximately 4×10^3 cells (PCS-200-013, SK-MEL-2 and MeWo) were cultured in a 96 well plate. […] This IC50 was obtained based on the cell viability counts in the previous experiments. Additional doses of sterile water or inhibitor were supplied every 24 h during 3 day incubation period. At the end of 3 day treatment, media were removed and fresh media (100 μL) were added with 4-[3-(4-iodophenyl)-2-(4-nitropheny))-2H-5-tetrazolio]-1,3-benzene disulfonate (WST-1) reagent (10 μL) to each well. The absorbance was measured at 450 nm for every 0.5 hour up to 3 hours using the Synergy HT microplate reader from Biotek (Winooski, Vt.).
WST-1 assay was performed to determine the in-vitro cytotoxicity of ACPD and DNDA on normal and malignant cell lines. Measured absorbance at 450 nm is directly proportional to the number of cells present. Cells produce a water soluble formazan with WST-1 as a result of their mitochondrial dehydrogenase activity. WST-1 assay is preferred over 3-(4,S-Dimethyl-2-thiazolyl)-2, 5-diphenyl-2Htetrazolium bromide (MTT) test since MTT needs to add acidic isopropanol to dissolve formazan which gives an additional toxicity to cells.

[5] = system: malignant melanoma cells (SK-MEL-2 and MeWo); experiment: WST-1 assay, ζ-Stat; type: cell-based, human; conditions: 2.5 μM
Description: as §1
Cell proliferation was measured using WST-1 assay for SK-MEL-2 (FIG. 16A) and MeWo (FIG. 16b). Absorbance at 450 nm due to production of water soluble formazan was measured as a function of time and the absorbance is directly proportional to the number of cells. The experimental concentration for ζ-Stat was 2.5 μM. N=3 experiments were performed for each cell line and mean±SD are plotted.

CC(=O)C1=C(O)CCC1=O [ACPD, 2-acetyl-1,3-cyclopentanedione]
inhibition of other kinases [1]: does not inhibit
effect on other PKC isoforms [2]: without affecting
inhibition of PKC-ι [3]: approximately 40%
WST-1 absorbance at 450 nm, effect [4]: did not show a significant effect

O=S(=O)(O)c1cc(O)c2c(S(=O)(=O)O)cc(S(=O)(=O)O)cc2c1 [ζ-Stat, 8-hydroxy-1,3,6-naphthalenetrisulfonic acid]
toxicity according to the WST-1 assay [5]: did not show toxicity
